Data published in patent US20080242713A1, “Novel 5-cyano-prostacyclin derivatives as agents for the treatment of autoimmune diseases” (priority 2007, published 2008).

Legend:
EP4 receptor [1] = target: T1, EP4 receptor (Homo sapiens, UniProt P35408); assay: cAMP accumulation assay in cells expressing EP4 (Biological Example 2, tetrazole derivatives); type: cell-based; details: cAMP luminescence, mean of triplicate
Description: (§1) Commercial cAMP accumulation assays are typically competitive immunoassays in which free cAMP from cell lysates competes for antibody binding against a “labeled” cAMP molecule. This positive signal is generated in direct proportion to the amount of free cAMP. In our assays cAMP standards and samples are pipetted into the wells of a microplate. An antibody specific cAMP is added to the wells. A substrate is added to the wells and luminescence develops in proportion to the amount of cAMP which accumulated during treatment of cells which express the EP4 receptor with standards and samples. The intensity of the luminescence is measured in a luminometer.
Results shown are the mean of triplicate determinations.

EP4 receptor [2] = target: T1, EP4 receptor; assay: cAMP accumulation assay in cells expressing EP4 (Biological Example 1, diol derivative); type: cell-based; details: for RLU - background: cAMP luminescence, mean of triplicate
Description: as §1
The response of the EP4 expressing cells treated with the diol derivative is compared to Nileprost. Results shown are the mean of triplicate determinations.

T1 sequence (P35408 whole entry): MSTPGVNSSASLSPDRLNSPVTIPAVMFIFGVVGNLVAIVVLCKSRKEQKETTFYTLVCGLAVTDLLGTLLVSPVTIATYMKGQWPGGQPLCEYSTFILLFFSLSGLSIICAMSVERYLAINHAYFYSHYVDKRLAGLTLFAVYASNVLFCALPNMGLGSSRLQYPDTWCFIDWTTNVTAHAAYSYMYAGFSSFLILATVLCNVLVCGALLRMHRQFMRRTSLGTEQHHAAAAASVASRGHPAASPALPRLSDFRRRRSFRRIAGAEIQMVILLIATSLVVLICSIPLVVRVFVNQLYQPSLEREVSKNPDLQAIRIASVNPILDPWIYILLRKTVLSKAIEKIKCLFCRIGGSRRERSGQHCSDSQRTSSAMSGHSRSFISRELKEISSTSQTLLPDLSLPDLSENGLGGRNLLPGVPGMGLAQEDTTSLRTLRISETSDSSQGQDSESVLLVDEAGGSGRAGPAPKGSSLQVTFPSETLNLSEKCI

Row | Compound | RLU - background (EP4 receptor [1]; compound 0.005 nM) | RLU - background (EP4 receptor [1]; compound 0.052 nM) | RLU - background (EP4 receptor [1]; compound 0.157 nM) | RLU - background (EP4 receptor [1]; compound 0.472 nM) | RLU - background (EP4 receptor [1]; compound 1.417 nM) | RLU - background (EP4 receptor [1]; compound 4.252 nM) | RLU - background (EP4 receptor [1]; compound 12.757 nM) | RLU - background (EP4 receptor [1]; compound 38.272 nM) | RLU - background (EP4 receptor [1]; compound 114.815 nM) | RLU - background (EP4 receptor [1]; compound 344.444 nM) | RLU - background (EP4 receptor [1]; compound 1033.333 nM) | RLU - background (EP4 receptor [1]; compound 3100.000 nM) | RLU - background (EP4 receptor [2]; compound 0.010 nM) | RLU - background (EP4 receptor [2]; compound 0.152 nM) | RLU - background (EP4 receptor [2]; compound 0.457 nM) | RLU - background (EP4 receptor [2]; compound 1.372 nM) | RLU - background (EP4 receptor [2]; compound 4.115 nM) | RLU - background (EP4 receptor [2]; compound 12.346 nM) | RLU - background (EP4 receptor [2]; compound 37.037 nM) | RLU - background (EP4 receptor [2]; compound 111.111 nM) | other results
1 | CCCCC(C)[C@H](O)/C=C/[C@@H]1[C@H]2C/C(=C(\C#N)CCCc3nnn[nH]3)O[C@H]2C[C@H]1O (stereo partly drawn) [Cpd. #1, α-[(3aR,4R,5R,6aS)-hexahydro-5-hydroxy-4-[(1E,3S)-3-hydroxy-4-methyl-1-octenyl]-2H-cyclopenta[b]furan-2-ylidene]-1H-tetrazole-5-2E-pentanenitrile] | 53600.00 RLU | 17642.67 RLU | 22533.33 RLU | 27365.33 RLU | 157357.33 RLU | 373856.00 RLU | 435810.67 RLU | 484954.67 RLU | 514858.67 RLU | 606992.00 RLU | 584826.67 RLU | 559813.33 RLU | – | – | – | – | – | – | – | – | –
2 | CCCCC(C)[C@@H](O)/C=C/[C@@H]1[C@H]2C/C(=C(/C#N)CCCc3nnn[nH]3)O[C@H]2C[C@H]1O (stereo partly drawn) [Cpd. #3, α-[(3a R,4R,5R,6aS)-hexahydro-5-hydroxy-4-[(1E,3R)-3-hydroxy-4-methyl-1-octenyl]-2H-cyclopenta[b]furan-2-ylidene]-1H-tetrazole-5-2Z-pentanenitrile] | 76373.33 RLU | 79997.33 RLU | 83616.00 RLU | 118397.33 RLU | 273778.67 RLU | 374920.00 RLU | 522154.67 RLU | 697208.00 RLU | 773429.33 RLU | 813525.33 RLU | 710053.33 RLU | 714320.00 RLU | – | – | – | – | – | – | – | – | –
3 | CCCCC[C@H](O)/C=C/[C@@H]1[C@H]2CC(=C(C#N)CCCc3nnn[nH]3)O[C@H]2C[C@H]1O [Cpd. #4, α-[(3aR,4R,5R,6aS)-hexahydro-5-hydroxy-4-[(1E,3S)-3-hydroxy-1-octenyl]-2H-cyclopenta[b]furan-2-ylidene]-1H-tetrazole-5-pentanenitrile] | 146597.33 RLU | 83650.67 RLU | 40557.33 RLU | 46426.67 RLU | 82445.33 RLU | 158224.00 RLU | 429672.00 RLU | 554328.00 RLU | 813194.67 RLU | 909808.00 RLU | 808477.33 RLU | 820866.67 RLU | – | – | – | – | – | – | – | – | –
4 | CCCCC(C)[C@H](O)/C=C/[C@@H]1[C@H]2C/C(=C(\C#N)CCCC(O)CO)O[C@H]2C[C@H]1O (stereo partly drawn) [Cpd. #5, 2-[(3aR,4R,5R,6aS)-hexahydro-5-hydroxy-4-[(1E,3S)-3-hydroxy-4-methyl-1-octenyl]-2H-cyclopenta[b]furan-2-ylidene]-6,7-dihydroxy-, (2E)-heptanenitrile] | – | – | – | – | – | – | – | – | – | – | – | – | 0 RLU | 0 RLU | 0 RLU | 152432 RLU | 532234 RLU | 912060 RLU | 1019082 RLU | 1150386 RLU | RLU - background (EP4 receptor [2]; compound 333.333 nM): 1291820 RLU; RLU - background (EP4 receptor [2]; compound 1000.000 nM): 1260692 RLU; RLU - background (EP4 receptor [2]; compound 3000.000 nM): 1201852 RLU; RLU - background (EP4 receptor [2]; compound 9000.000 nM): 1206470 RLU; EP4 agonist activity in the cAMP accumulation assay (EP4 receptor [2]; result in words): dose-responsively showed EP4 agonist activity
5 | CCCCC(C)C(O)C=CC1C(O)CC2OC(=C(C#N)CCCC(=O)O)CC21 (stereo not shown) [Nileprost, 5-cyano-16-methylprostacyclin, reference compound] | – | – | – | – | – | – | – | – | – | – | – | – | 0 RLU | 850786 RLU | 1291900 RLU | 1521826 RLU | 1626762 RLU | 1589698 RLU | 1312998 RLU | 1258626 RLU | RLU - background (EP4 receptor [2]; compound 333.333 nM): 1648306 RLU; RLU - background (EP4 receptor [2]; compound 1000.000 nM): 1635488 RLU; RLU - background (EP4 receptor [2]; compound 3000.000 nM): 1625442 RLU; RLU - background (EP4 receptor [2]; compound 9000.000 nM): 1599712 RLU
